# From patent US20210405025A1, “IDENTIFYING COMPOUNDS FOR TREATING CANCER AND USE THEREOF” (THE UAB RESEARCH FOUNDATION, priority 2018, published 2021)
# Where two headings read alike, the source gives them in different places.
# Experiments:
# AML patient samples = assay: 10-point dose-response drug screen of statins against AML patient samples, 3-day drug sensitivity assay; type: cell-based, human; settings: for statin-mediated killing: highly sensitive cases 285, 340 and 290, result in words; for IC50: 3-day assay
# Description: Drug sensitivity assays were performed using a 1,536-well platform where all cells and reagents were deposited in wells using an acoustic liquid handling unit that is highly accurate for dispensing of nanoliter volumes of liquid. […] After dispensing the cells into the wells, an independent drug at a known concentration is added to each well and incubated with the cells. After three days, the percentage of live cells in each well is determined to assess the killing efficiency of each compound. […] Cell viability assays are known to those of skill in the art. See, for example, Pemovska et al., Individualized systems medicine strategy to tailor treatments for patients with chemorefractory acute myeloid leukemia. Cancer Discovery 3:1416-1429, 2013; Pabst et al., Identification of small molecules that support human leukemia stem cell activity ex vivo. Nature Methods 11:436-442, 2014; Baccelli et al., A novel approach for the identification of efficient combination therapies in primary human acute myeloid leukemia specimens. Blood Cancer Journal 7:e529, 2017. In studies described herein, the 1,536-well format was utilized, which allowed for use of four times fewer cells as well as less drug and media components due to the small assay volume of 5 microliters. […] Other compounds like CellTiter-Glo (Promega, Madison, Wis.) are equally appropriate reagents for determining cell viability.
# Conditions for the drug screening assays were as described in Pabst et al., Identification of small molecules that support human leukemia stem cell activity ex vivo, Nature Methods 11:436-442, 2014). Using this protocol, cells were cultured in Iscove's Modified Dulbecco's Medium (IMDM), 15% BIT (bovine serum albumin, insulin, transferrin; Stem Cell Technologies 09500 (Vancouver, Calif.)), 100 ng/ml SCF (Shenandoah 100-04 (Warwick, Pa.)), 50 ng/ml FLT3L (Shenandoah 100-21), 20 ng/ml IL-3 (Shenandoah 100-80), 20 ng/ml G-CSF (Shenandoah 100-72), 10^-4 M β-mercaptoethanol, gentamicin (50 μg/ml) and ciprofloxacin (10 μg/ml).
# Cells were removed from liquid nitrogen and placed in a 37° C. bath, just until thawed. For 1,536-well screens utilizing 6,000 wells about 100 million cells were thawed. The volume was doubled with pre-warmed culture media and placed on ice for about one to two minutes. The cells were brought to a final volume of about 8 to 10 mL before spinning down at 1,100 rpm for 5 min at 10° C. The pelleted cells were resuspended in 10 mL of culture media and plated in a tissue-culture treated T75 flask at a density of 1 to 2 million cells/ml. The cells were cultured overnight prior to fluorescence-activated cell sorting of viable cells on the following day.
# After cells were cultured overnight, a cell scraper was used to remove any cells that adhered to the plastic. The cells were gently pipetted up and down to break up aggregates. Then, the entire volume was transferred to a 50 mL conical tube through a 70 micron cell strainer to remove cell clumps. The T75 flask was rinsed and scraped with about 10 mL HBSS and transferred to the same 50 mL conical tube through the strainer. The harvested cells were spun down at 1,100 rpm for 5 min at 10° C. The cells were then resuspendd in about 300-500 microliters FACS buffer (HBSS+2% FBS+1× propidium iodide) and transferred to a FACS tube. The tube was placed on ice and viable cells that are forward- and side-scatter gated on viable myeloid blasts were sorted by FACS (the scatter gate should exclude small lymphocytes, large myeloid cells, and debris). After sorting the required number of viable cells, the cells were spun down at 1,100 rpm for 5 min at 10° C. and subsequently resuspended at 4,000-4,500 cells per 5 microliter volume of complete culture media with growth factors and penicillin/streptomycin.
# relapsed AML cells = assay: Drug sensitivity assay, 1,536-well, 3-day culture with individual approved drugs at 10 μM, viability by alamarBlue; type: cell-based, human; settings: number of relapsed AML cases out of 18 tested with >70% cell death; 10 μM, 3-day culture
# Method in brief: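 Three-day exposure of primary AML cells to individual drugs in 1,536-well format, viability read as percent live cells. Cells were thawed, cultured overnight, sorted by FACS for viable blasts and plated at 4,000-4,500 cells/5 μL in cytokine-supplemented IMDM/BIT medium.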
# [1] = read-out: In vivo cMax; plasma concentration achievable in vivo at the FDA-recommended dose and schedule; cited from earlier work
# [2] = molecular target: cGMP-inhibited phosphodiesterase (PDE3); settings: cited from earlier work
# [3] = patient sample AML 280, read-out: IC50 AML 280
# [4] = patient sample AML 285, read-out: IC50 AML 285
# [5] = patient sample AML 290, read-out: IC50 AML 290
# [6] = patient sample AML 297, read-out: IC50 AML 297
# [7] = patient sample AML 299, read-out: IC50 AML 299
# [8] = patient sample AML 307, read-out: IC50 AML 307
# [9] = patient sample AML 330, read-out: IC50 AML 330
# [10] = patient sample AML 339, read-out: IC50 AML 339
# [11] = patient sample AML 340, read-out: IC50 AML 340
# [12] = patient sample AML 343, read-out: IC50 AML 343
# [13] = Homo sapiens, 72 h, patient sample AML 285, read-out: IC50 AML 285
# [14] = Homo sapiens, 72 h, patient sample AML 290, read-out: IC50 AML 290
# [15] = Homo sapiens, 72 h, patient sample AML 297, read-out: IC50 AML 297
# [16] = Homo sapiens, 72 h, patient sample AML 299, read-out: IC50 AML 299
# [17] = Homo sapiens, 72 h, patient sample AML 307, read-out: IC50 AML 307
# [18] = Homo sapiens, 72 h, patient sample AML 330, read-out: IC50 AML 330
# [19] = Homo sapiens, 72 h, patient sample AML 339, read-out: IC50 AML 339
# [20] = Homo sapiens, 72 h, patient sample AML 340, read-out: IC50 AML 340
# [21] = Homo sapiens, 72 h, patient sample AML 343, read-out: IC50 AML 343
# [22] = Homo sapiens, 72 h, patient sample AML 280, read-out: IC50 AML 280
IC50 (AML patient samples; [13]),IC50 (AML patient samples; [14]),IC50 (AML patient samples; [15]),IC50 (AML patient samples; [16]),IC50 (AML patient samples; [17]),IC50 (AML patient samples; [18]),IC50 (AML patient samples; [19]),IC50 (AML patient samples; [20]),IC50 (AML patient samples; [21]),Compound,IC50 (AML patient samples; [3]),IC50 (AML patient samples; [4]),IC50 (AML patient samples; [5]),IC50 (AML patient samples; [6]),IC50 (AML patient samples; [7]),IC50 (AML patient samples; [8]),IC50 (AML patient samples; [9]),IC50 (AML patient samples; [10]),IC50 (AML patient samples; [11]),IC50 (AML patient samples; [12]),#Cases >70% cell death (relapsed AML cells),also measured
,,,,,,,,,CC(C)c1c(C(=O)Nc2ccccc2)c(-c2ccccc2)c(-c2ccc(F)cc2)n1CC[C@@H](O)C[C@@H](O)CC(=O)[O-].CC(C)c1c(C(=O)Nc2ccccc2)c(-c2ccccc2)c(-c2ccc(F)cc2)n1CC[C@@H](O)C[C@@H](O)CC(=O)[O-].[Ca+2] [ATORVASTATIN CALCIUM],2.24 µM,0.475 µM,0.584 µM,> 10 µM,2.9 µM,1.09 µM,> 10 µM,9.12 µM,0.732 µM,> 10 µM,12,statin-mediated killing (AML patient samples): most significant activity
,,,,,,,,,"CC(C)c1nc(N(C)S(C)(=O)=O)nc(-c2ccc(F)cc2)c1/C=C/[C@@H](O)C[C@@H](O)CC(=O)[O-].CC(C)c1nc(N(C)S(C)(=O)=O)nc(-c2ccc(F)cc2)c1/C=C/[C@@H](O)C[C@@H](O)CC(=O)[O-].[Ca+2] [ROSUVASTATIN CALCIUM (Crestor), ROSUVASTATIN CALCIUM]",8.35 µM,1.47 µM,1.46 µM,> 10 µM,> 10 µM,3.79 µM,> 10 µM,> 10 µM,2.52 µM,> 10 µM,9,
> 10 µM,> 10 µM,6.94 µM,> 10 µM,> 10 µM,> 10 µM,5.08 µM,> 10 µM,> 10 µM,CCC(C)(C)C(=O)O[C@H]1C[C@@H](C)C=C2C=C[C@H](C)[C@H](CC[C@@H]3C[C@@H](O)CC(=O)O3)[C@H]21 [SIMVASTATIN],,,,,,,,,,,6,
,,,,,,,,,O=C([O-])C[C@H](O)C[C@H](O)/C=C/c1c(C2CC2)nc2ccccc2c1-c1ccc(F)cc1.O=C([O-])C[C@H](O)C[C@H](O)/C=C/c1c(C2CC2)nc2ccccc2c1-c1ccc(F)cc1.[Ca+2] [PITAVASTATIN CALCIUM],1.35 µM,0.157 µM,0.149 µM,> 10 µM,1.81 µM,0.726 µM,9.83 µM,5.24 µM,0.475 µM,> 10 µM,13,statin-mediated killing (AML patient samples): most significant activity; Cmax [1]: 250 nM
0.426 µM,0.417 µM,> 10 µM,3.81 µM,1.58 µM,> 10 µM,7.79 µM,0.721 µM,> 10 µM,CC(C)n1c(/C=C/C(O)CC(O)CC(=O)O)c(-c2ccc(F)cc2)c2ccccc21 (centres unmarked) [FLUVASTATIN],,,,,,,,,,,7,IC50 (AML patient samples; [22]): 2.42 µM; Cmax [1]: 490 nM
> 10 µM,> 10 µM,> 10 µM,> 10 µM,> 10 µM,> 10 µM,> 10 µM,> 10 µM,> 10 µM,CC[C@H](C)C(=O)O[C@H]1C[C@H](O)C=C2C=C[C@H](C)[C@H](CC[C@@H](O)C[C@@H](O)CC(=O)O)[C@H]21 [PRAVASTATIN],,,,,,,,,,,1,IC50 (AML patient samples; [22]): > 10 µM
,,,,,,,,,COc1cc2c(cc1OC)-c1c/c(=N\c3c(C)cc(C)cc3C)n(C)c(=O)n1CC2.Cl [TREQUINSINçHCL],,,,,,,,,,,1,IC50 [2]: 0.00025 µM
